Assay results reported in EP4273147A1, “SUBSTITUTED SPIROLACTAMS, SALTS THEREOF AND THEIR USE AS HERBICIDALLY ACTIVE SUBSTANCES” (Bayer Aktiengesellschaft, priority 2022, dated 2023).

What was measured:
[1] = test system: ECHCG; assay: Herbicidal pre-emergence action (Table A2); format: in vivo, Echinochloa crus-galli; details: visual grading after ca. 3 weeks
How it was run: (§1)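 Weed seeds are sown into sandy loam in pots and covered with soil, with two species per pot, one monocot and one dicot.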

[2] = test system: SETVI; assay: Herbicidal pre-emergence action (Table A5); format: in vivo, Setaria viridis; details: visual grading after ca. 3 weeks
How it was run: as §1

[3] = test system: STEME; assay: Herbicidal pre-emergence action (Table A6); format: in vivo, Stellaria media; details: visual grading after ca. 3 weeks
How it was run: as §1

[4] = test system: POAAN; assay: Herbicidal pre-emergence action (Table A7); format: in vivo, Poa annua; details: visual grading after ca. 3 weeks
How it was run: as §1

[5] = test system: DIGSA; assay: Herbicidal pre-emergence action, section C (Table C5); format: in vivo, Digitaria sanguinalis; details: application rate 320 g/ha; visual grading after ca. 3 weeks
[6] = test system: SETVI; assay: Herbicidal pre-emergence action, section C (Table C10); format: in vivo, Setaria viridis; details: application rate 320 g/ha; visual grading after ca. 3 weeks
[7] = test system: ZEAMX; assay: Pre-emergence effects on crop plants (Table D1); format: in vivo, Zea mays; details: crop plant; application rate 320 g/ha; visual grading after ca. 3 weeks
From the text: (§5) Seeds of mono- and dicotyledonous weed plants and crop plants were sown, in plastic or organic planting pots, in sandy loam and covered with soil. The compounds according to the invention, formulated in the form of wettable powders (WP) or as emulsifiable concentrates (EC), were applied to the surface of the covering soil as aqueous suspension or emulsion, with the addition of 0.5% of an additive, at an application rate of 600 1 of water/ha (converted).
(§6) Following treatment, the pots were placed in a greenhouse and kept under optimum growth conditions for the test plants.

[8] = test system: TRZAS; assay: Pre-emergence effects on crop plants (Table D2); format: in vivo, Triticum aestivum; details: crop plant; application rate 320 g/ha; visual grading after ca. 3 weeks
[9] = test system: GLXMA; assay: Pre-emergence effects on crop plants (Table D4); format: in vivo, Glycine max; details: crop plant; application rate 320 g/ha; visual grading after ca. 3 weeks
[10] = test system: BRSNW; assay: Pre-emergence effects on crop plants (Table D5); format: in vivo, Brassica napus; details: crop plant; application rate 320 g/ha; visual grading after ca. 3 weeks
[11] = test system: VIOTR; assay: Herbicidal post-emergence action, section E (Table E10); format: in vivo, Viola tricolor; details: application rate 320 g/ha; assessed visually after ca. 3 weeks
From the text: (§2) 2 to 3 weeks after sowing, the test plants were sprayed in the single-leaf stage.

[12] = test system: ZEAMX; assay: Post-emergence effects on crop plants (Table F1); format: in vivo, Zea mays; details: application rate 320 g/ha, crop plant ZEAMX
From the text: as §2

[13] = test system: TRZAS; assay: Post-emergence effects on crop plants (Table F2); format: in vivo, Triticum aestivum; details: application rate 320 g/ha, crop plant TRZAS
From the text: as §2

[14] = test system: ORYZA; assay: Post-emergence effects on crop plants (Table F3); format: in vivo, Oryza sativa; details: application rate 320 g/ha, crop plant ORYZA
From the text: as §2

[15] = test system: GLXMA; assay: Post-emergence effects on crop plants (Table F4); format: in vivo, Glycine max; details: application rate 320 g/ha, crop plant GLXMA
From the text: as §2

[16] = test system: BRSNW; assay: Post-emergence effects on crop plants (Table F5); format: in vivo, Brassica napus; details: application rate 320 g/ha, crop plant BRSNW
From the text: as §2

[17] = test system: ORYZA; assay: Pre-emergence effects on crop plants (Table D3); details: crop plant; application rate 320 g/ha; visual grading after ca. 3 weeks
From the text: as §5, §6

[18] = test system: ABUTH; assay: Herbicidal post-emergence action (Table B1); format: in vivo, Abutilon theophrasti; details: application rate 320 g/ha; treated at one-leaf stage; rated visually after about 3 weeks vs untreated controls (100% = plants have died, 0% = like control plants)
Protocol: (§3) Seeds of mono- and dicotyledonous weed plants were placed in plastic pots in sandy loam soil (doubly sown with in each case one species of mono- or dicotyledonous weed plants per pot), covered with soil and cultivated in a greenhouse under controlled growth conditions. 2 to 3 weeks after sowing, the test plants were treated at the one-leaf stage. […] After the test plants had been kept in the greenhouse under optimum growth conditions for about 3 weeks, the activity of the preparations was rated visually in comparison to untreated controls. For example, 100% activity = the plants have died, 0% activity = like control plants.

[19] = test system: LOLRI; assay: Herbicidal pre-emergence action (Table A3); format: in vivo, Lolium rigidum; details: visual grading after ca. 3 weeks; for pre-emergence activity against LOLRI: application rate 1280 g/ha
How it was run: as §1

[20] = test system: MATIN; assay: Herbicidal pre-emergence action (Table A4); format: in vivo, Matricaria inodora; details: application rate 1280 g/ha; visual grading after ca. 3 weeks
How it was run: as §1

[21] = test system: AMARE; assay: Herbicidal pre-emergence action (Table A8); format: in vivo, Amaranthus retroflexus; details: visual grading after ca. 3 weeks vs untreated controls (100% = plants have died off, 0% = as control plants)
From the text: Seeds of mono- and dicotyledonous weed plants were sown in plastic pots (double sowings with one species of mono- and one species of dicotyledonous weed plants per pot), in sandy loam, and covered with soil.

[22] = test system: KCHSC; assay: Herbicidal pre-emergence action (Table A10); format: in vivo, Kochia scoparia; details: application rate 1280 g/ha; visual grading after ca. 3 weeks
How it was run: as §1

[23] = test system: DIGSA; assay: Herbicidal pre-emergence action (Table A12); format: in vivo, Digitaria sanguinalis; details: visual grading after ca. 3 weeks
How it was run: as §1

[24] = test system: ECHCG; assay: Herbicidal post-emergence action (Table B3); format: in vivo, Echinochloa crus-galli; details: application rate 1280 g/ha, rated visually after about 3 weeks
How it was run: (§4)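 Greenhouse pot test in sandy loam; weeds sown, treated post-emergence at one-leaf stage 2–3 weeks after sowing. Activity rated visually about 3 weeks later versus untreated controls, 100% = plants dead, 0% = like controls.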

[25] = test system: MATIN; assay: Herbicidal post-emergence action (Table B6); format: in vivo, Matricaria inodora; details: application rate 1280 g/ha; rated visually after about 3 weeks
Protocol: as §3

[26] = test system: POAAN; assay: Herbicidal post-emergence action (Table B7); format: in vivo, Poa annua; details: application rate 1280 g/ha
How it was run: as §4

[27] = test system: AMARE; assay: Herbicidal post-emergence action (Table B11); format: in vivo, Amaranthus retroflexus; details: application rate 1280 g/ha
Protocol: as §3

[28] = test system: ALOMY; assay: Herbicidal pre-emergence action (Table A9); format: in vivo, Alopecurus myosuroides; details: application rate 320 g/ha; visual grading after ca. 3 weeks
How it was run: as §1

[29] = test system: VERPE; assay: Herbicidal pre-emergence action (Table A11); format: in vivo, Veronica persica; details: application rate 1280 g/ha; visual grading after ca. 3 weeks
How it was run: as §1

[30] = test system: SETVI; assay: Herbicidal post-emergence action (Table B8); format: in vivo, Setaria viridis; details: application rate 1280 g/ha
How it was run: as §4

Compound: O=C1N(Cc2c(F)cccc2Cl)CCCC12CCCN(Cc1c(F)cccc1Cl)C2=O (racemic) [I-063]
- pre-emergence activity against ECHCG ([1]; application rate 1280 g/ha): 100%
- pre-emergence activity against SETVI ([2]; application rate 320 g/ha): 100%
- pre-emergence activity against STEME ([3]; application rate 320 g/ha): 100%
- pre-emergence activity against POAAN ([4]; application rate 320 g/ha): 100%
- pre-emergence activity against DIGSA [5]: 100%
- pre-emergence activity against SETVI [6]: 100%
- pre-emergence activity against ZEAMX [7]: 0%
- pre-emergence activity against TRZAS [8]: 0%
- pre-emergence activity against GLXMA [9]: 0%
- pre-emergence activity against BRSNW [10]: 10%
- post-emergence activity against VIOTR [11]: 80%
- post-emergence activity against ZEAMX [12]: 10%
- post-emergence activity against TRZAS [13]: 0%
- post-emergence activity against ORYZA [14]: 0%
- post-emergence activity against GLXMA [15]: 10%
- post-emergence activity against BRSNW [16]: 10%
- pre-emergence activity against ORYZA [17]: 0%

Compound: COc1ccccc1CN1CCCC2(CCCN(Cc3ccccc3OC)C2=O)C1=O (racemic) [I-071]
- pre-emergence activity against ECHCG ([1]; application rate 1280 g/ha): 100%
- pre-emergence activity against POAAN ([4]; application rate 320 g/ha): 100%
- post-emergence activity against ABUTH [18]: 90%

Compound: O=C1N(Cc2ccccc2)CCC12CCCN(Cc1cccc(F)c1F)C2=O (racemic) [I-084]
- pre-emergence activity against ECHCG ([1]; application rate 1280 g/ha): 100%
- pre-emergence activity against LOLRI [19]: 100%
- pre-emergence activity against MATIN [20]: 90%
- pre-emergence activity against SETVI ([2]; application rate 1280 g/ha): 100%
- pre-emergence activity against STEME ([3]; application rate 1280 g/ha): 90%
- pre-emergence activity against POAAN ([4]; application rate 320 g/ha): 100%
- pre-emergence activity against AMARE ([21]; application rate 1280 g/ha): 90%
- pre-emergence activity against KCHSC [22]: 90%
- pre-emergence activity against DIGSA ([23]; application rate 1280 g/ha): 100%

Compound: O=C1N(Cc2c(F)cccc2F)CCC12CCN(Cc1c(F)cccc1F)C2=O (racemic) [I-101]
- pre-emergence activity against ECHCG ([1]; application rate 1280 g/ha): 90%
- pre-emergence activity against LOLRI [19]: 90%
- pre-emergence activity against MATIN [20]: 90%
- pre-emergence activity against SETVI ([2]; application rate 1280 g/ha): 90%
- pre-emergence activity against POAAN ([4]; application rate 1280 g/ha): 100%
- pre-emergence activity against KCHSC [22]: 90%
- post-emergence activity against ECHCG [24]: 90%
- post-emergence activity against MATIN [25]: 90%
- post-emergence activity against POAAN [26]: 90%
- post-emergence activity against AMARE [27]: 90%

Compound: O=C1N(Cc2c(F)cc(F)cc2F)CCCC12CCCN(Cc1c(F)cc(F)cc1F)C2=O (racemic) [I-198, 2,8-bis[(2,4,6-trifluorophenyl)methyl]-2,8-diazaspiro[5.5]undecane-1,7-dione]
- pre-emergence activity against ECHCG ([1]; application rate 320 g/ha): 100%
- pest or weed control at 320 g/ha ([19]; Lolium rigidum, pre-emergence, 504 h, application rate 320 g/ha, read-out: pre-emergence activity against LOLRI): 100%
- pre-emergence activity against MATIN [20]: 90%
- pre-emergence activity against SETVI ([2]; application rate 320 g/ha): 100%
- pre-emergence activity against STEME ([3]; application rate 320 g/ha): 90%
- pest or weed control at 320 g/ha ([4]; Poa annua, pre-emergence, 504 h, application rate 320 g/ha, read-out: pre-emergence activity against POAAN): 100%
- pre-emergence activity against AMARE ([21]; application rate 320 g/ha): 90%
- pre-emergence activity against ALOMY [28]: 90%
- pre-emergence activity against KCHSC [22]: 90%
- pre-emergence activity against VERPE [29]: 90%
- pre-emergence activity against DIGSA ([23]; application rate 320 g/ha): 100%
- pest or weed control at 1280 g/ha ([24]; Echinochloa crus-galli, post-emergence, 504 h, read-out: post-emergence activity against ECHCG): 90%
- post-emergence activity against POAAN [26]: 90%
- post-emergence activity against SETVI [30]: 90%
- post-emergence activity against AMARE [27]: 90%
